Reference: patent publication US20080026074A1, “Method of short term skin wrinkles correction using strontium divalent ion” (priority 2006, published 2008)

Legend:
photoaged skin = assay: topical application of strontium ion in a carrier to skin; type: in vivo; details: carrier e.g. distillate of orange flower petals (neroli floral water), within minutes of application
Method: The epidermal ridges are less pronounced, an effect that may be related to relaxation of erector muscles.
This effect lasted for about 4 hours.

[1] = taken orally, long term use; cited from earlier work

[Sr+2] [strontium ion]
effect on skin texture (photoaged skin): changes the texture of photoaged skin, resulting in a more youthful complexion | toxicity [1]: toxicity is not a problem
